Test results from patent US20240270753A1, “HETEROCYCLIC COMPOUND FOR INHIBITING SHP2 ACTIVITY, PREPARATION METHOD THEREFOR AND USE THEREOF” (SHANGHAI INSTITUTE OF MATERIA MEDICA, CHINESE ACADEMY OF …, priority 2021, published 2024).

Tests used:
MV4-11 cells = experiment: MV4-11 cell proliferation inhibition assay (MTS); assay type: cell-based; conditions: MTS read on the third day
Protocol: (a) SHP099 and TNO155 were used as positive controls.
(b) MV4-11 cells (10,000 cells/well) were seeded in a 96-well culture plate with 100 μL/well of the culture medium (IMDM supplemented with 10% fetal bovine serum (FBS), from Gibco company), and cultured for 6 hours. The compounds formulated in different concentrations of the present invention were added. On the third day, 20 μL of MTS reagent (purchased from Promega Company) was added to each well, and the absorbance value was detected according to the reagent instructions (Promega Company). The IC50 of the inhibitory activity of the compounds of the present invention against the MV4-11 cell proliferation is shown in Table 2.

[1] = system: p-ERK 1/2 (Thr202/Tyr204) in MIAPaca-2 cells; experiment: Cell protein kinase (p-ERK) phosphorylation inhibition, AlphaLISA; assay type: cell-based; conditions: treated for 2 hours
Protocol: The inhibition of the phosphorylation level of intracellular protein kinase (ERK) by a compound was detected by AlphaLISA method. The first step was to treat the cells with the compound. The compound to be tested was first diluted 5-fold with 100% DMSO, and a gradient including a total of 9 different concentrations was set; then MIAPaca-2 cells were inoculated into a 96-well plate at a density of 40,000 cells per well, with a volume of 80 μL per well; then 20 μL of DMSO or the compound to be tested with different concentrations was added to each well, with 2 replicates for each concentration, and the final concentration of DMSO was controlled at 0.5%. The second step was to lyse the cells. After the cells were treated for 2 hours, the culture medium was removed, and the cells were washed three times with a HBSS solution. 50 μL of a freshly prepared lysis buffer was added to each well, shaken, and left at room temperature for 10 minutes. […] 10 μL of the above lysate was put into a 384-well plate (Perkin Elmer, 6005350), and the phosphorylation level of the extracellular signal-regulated kinase in the sample was detected according to the manufacturer's instructions. Signals were read using the AlphaScreen detector on an Envision multifunctional microplate reader (PerkinElmer). The inhibition (%) was calculated by the following equation: […]

SMILES	IC50 (MV4-11 cells) [nM]	IC50 [1] [nM]
CC1(N)CCN(c2cnc(-c3cccc(Cl)c3Cl)c(N)n2)CC1 [SHP099]	883 ± 105	
C[C@@H]1OCC2(CCN(c3cnc(Sc4ccnc(N)c4Cl)c(N)n3)CC2)[C@@H]1N [TNO155]	118 ± 5.8	30
